Assay results reported in article PMC9452538, “The antimicrobial peptide LI14 combats multidrug-resistant bacterial infections” (Communications Biology, 2022).
Converted amounts (≈) assume the structure as drawn. Like-named read-outs stand apart in the source and are kept apart here.

Key:
[1] = serum versus MHB broth medium; cited from earlier work
Source text: Amphiphilicity, ɑ-helicity and appropriate peptide chain length are key factors for AMP activity.

[2] = system: MRSA T144; assay: microbe, parasite or virus in culture; type: cell-based, Staphylococcus aureus; conditions: Staphylococcus aureus; MRSA T144; MHB, 16-18 h, 37 °C; read-out: MIC
Protocol: (§1) An antimicrobial activity study was conducted on all peptides against a panel of laboratory bacteria, including ATCC source and clinical isolates with resistance determinants. According to CLSI2021 guidelines, we tested the minimum inhibitory concentrations (MICs) of peptides using standard broth micro-dilutions. Briefly, bacteria grown to exponential phase were diluted in 1:1000 to MHB, subsequently, equivalent amounts of bacterial suspension (1.5 × 10^6 CFUs/mL) were mixed with different concentrations of peptides in a sterilized 96-well microtiter plate (Corning).

[3] = system: S. aureus ATCC 29213; assay: microbe, parasite or virus in culture; type: cell-based, Staphylococcus aureus; conditions: Staphylococcus aureus, ATCC29213
Protocol: as §1

[4] = system: MRSA 1518; assay: microbe, parasite or virus in culture; type: cell-based, Staphylococcus aureus; conditions: Staphylococcus aureus; MRSA 1518; MHB, 16-18 h, 37 °C; read-out: MIC
Protocol: as §1

[5] = system: MRSA 1530; assay: microbe, parasite or virus in culture; type: cell-based, Staphylococcus aureus; conditions: Staphylococcus aureus; MRSA 1530; MHB, 16-18 h, 37 °C; read-out: MIC
Protocol: as §1

[6] = system: S. aureus 215 (cfr + LZD^R); assay: MIC broth microdilution; type: cell-based, Staphylococcus aureus; conditions: Staphylococcus aureus
Protocol: as §1

[7] = system: S. aureus G16 (RIF^R); assay: MIC broth microdilution; type: cell-based, Staphylococcus aureus; conditions: Staphylococcus aureus
Protocol: as §1

[8] = system: E. faecalis 1F-1; assay: microbe, parasite or virus in culture; type: cell-based; conditions: Enterococcus faecalis, 1F1; E. faecalis 1F-1; MHB, 16-18 h, 37 °C; read-out: MIC
Protocol: as §1

[9] = system: E. faecalis A4 (VRE, VanA); assay: microbe, parasite or virus in culture; type: cell-based; conditions: Enterococcus faecalis
Protocol: as §1

[10] = system: S. enteritidis ATCC 13076; assay: microbe, parasite or virus in culture; type: cell-based; conditions: Salmonella enterica
Protocol: as §1

[11] = system: E. faecium 5F-10; assay: microbe, parasite or virus in culture; type: cell-based, Enterococcus faecium; conditions: Enterococcus faecium, 5F10
Protocol: as §1

[12] = system: E. coli ATCC 25922; assay: microbe, parasite or virus in culture; type: cell-based, Escherichia coli; conditions: Escherichia coli, ATCC25922
Protocol: as §1

[13] = system: E. coli B2 (blaNDM-5 + mcr-1); assay: microbe, parasite or virus in culture; type: cell-based, Escherichia coli; conditions: Escherichia coli; E. coli B2 (blaNDM-5 + mcr-1); MHB, 16-18 h, 37 °C; read-out: MIC
Protocol: as §1

[14] = system: E. coli 1F28 (tet(X4)); assay: microbe, parasite or virus in culture; type: cell-based, Escherichia coli; conditions: Escherichia coli; E. coli 1F28 (tet(X4)); MHB, 16-18 h, 37 °C; read-out: MIC
Protocol: as §1

[15] = system: E. coli B3-1 (tet(X4)); assay: microbe, parasite or virus in culture; type: cell-based, Escherichia coli; conditions: Escherichia coli; E. coli B3-1 (tet(X4)); MHB, 16-18 h, 37 °C; read-out: MIC
Protocol: as §1

[16] = system: E. coli C3 (blaNDM-1); assay: microbe, parasite or virus in culture; type: cell-based, Escherichia coli; conditions: Escherichia coli; E. coli C3 (blaNDM-1); MHB, 16-18 h, 37 °C; read-out: MIC
Protocol: as §1

[17] = system: E. coli CP131 (mcr-3); assay: microbe, parasite or virus in culture; type: cell-based, Escherichia coli; conditions: Escherichia coli
Protocol: as §1

[18] = system: E. coli G6 (blaNDM-5); assay: microbe, parasite or virus in culture; type: cell-based, Escherichia coli; conditions: Escherichia coli; E. coli G6 (blaNDM-5); MHB, 16-18 h, 37 °C; read-out: MIC
Protocol: as §1

[19] = system: E. coli G92 (mcr-1); assay: microbe, parasite or virus in culture; type: cell-based, Escherichia coli; conditions: Escherichia coli
Protocol: as §1

[20] = system: A. baumannii ATCC 19609; assay: microbe, parasite or virus in culture; type: cell-based, Acinetobacter baumannii; conditions: Acinetobacter baumannii, ATCC19609; A. baumannii ATCC 19609; MHB, 16-18 h, 37 °C; read-out: MIC
Protocol: as §1

[21] = system: A. baumannii C222 (tet(X6)); assay: microbe, parasite or virus in culture; type: cell-based, Acinetobacter baumannii; conditions: Acinetobacter baumannii
Protocol: as §1

[22] = system: P. aeruginosa PA14; assay: microbe, parasite or virus in culture; type: cell-based, Pseudomonas aeruginosa; conditions: Pseudomonas aeruginosa
Protocol: as §1

[23] = system: K. pneumoniae ATCC 700603; assay: microbe, parasite or virus in culture; type: cell-based, Klebsiella pneumoniae; conditions: Klebsiella pneumoniae, ATCC700603; K. pneumoniae ATCC 700603; MHB, 16-18 h, 37 °C; read-out: MIC
Protocol: as §1

[24] = system: K. pneumoniae D120 (mcr-8); assay: microbe, parasite or virus in culture; type: cell-based, Klebsiella pneumoniae; conditions: Klebsiella pneumoniae; K. pneumoniae D120 (mcr-8); MHB, 16-18 h, 37 °C; read-out: MIC
Protocol: as §1

[25] = system: P. cibarius HNCF44W (blaNDM-1 + tet(X6)); assay: organism not typed; type: cell-based; conditions: P. cibarius HNCF44W (blaNDM-1 + tet(X6)); MHB, 16-18 h, 37 °C; read-out: MIC
Protocol: as §1

[26] = system: E. coli DH5α (PUC19); assay: MIC broth microdilution; type: cell-based, Escherichia coli; conditions: Escherichia coli; engineered E. coli DH5α (PUC19); MHB, 16-18 h, 37 °C; read-out: MIC
Protocol: as §1

[27] = system: E. coli DH5α (PUC19-mcr-1); assay: MIC broth microdilution; type: cell-based, Escherichia coli; conditions: Escherichia coli
Protocol: as §1

[28] = system: E. coli DH5α (PUC19-tet(X4)); assay: MIC broth microdilution; type: cell-based; conditions: Escherichia coli
Protocol: as §1

[29] = system: MDR E. coli B2; assay: Checkerboard assay with LI14; type: cell-based, Escherichia coli
[30] = system: E. coli DH5α (PUC19-blaNDM-1); assay: MIC broth microdilution; type: cell-based; conditions: Escherichia coli
Protocol: as §1

[31] = system: E. coli DH5α (PUC19-blaNDM-5); assay: MIC broth microdilution; type: cell-based; conditions: Escherichia coli
Protocol: as §1

[32] = system: E. coli DH5α (PUC19-blaNDM-9); assay: MIC broth microdilution; type: cell-based; conditions: Escherichia coli
Protocol: as §1

[33] = system: sensitive E. coli ATCC 25922; assay: Checkerboard assay with LI14; type: cell-based, Escherichia coli
[34] = system: tigecycline-resistant E. coli B3-1; assay: Checkerboard assay with LI14; type: cell-based, Escherichia coli
[35] = in the presence of ¼ MIC of LI14
[36] = antibiotic in combination with LI14, checkerboard

Row | Compound | MIC [2] [µg/mL] | MIC [4] [µg/mL] | MIC [5] [µg/mL] | MIC [6] [µg/mL] | MIC [7] [µg/mL] | MIC [8] [µg/mL] | MIC [13] [µg/mL] | MIC [14] [µg/mL] | MIC [15] [µg/mL] | MIC [16] [µg/mL] | MIC [18] [µg/mL] | MIC [20] [µg/mL] | MIC [23] [µg/mL] | MIC [24] [µg/mL] | MIC [25] [µg/mL] | MIC [26] [µg/mL] | MIC [27] [µg/mL] | MIC [28] [µg/mL] | further results
1 | LL-37: human AMP LL-37, previously reported peptide antibiotic | – | – | – | – | – | – | – | – | – | – | – | – | – | – | – | – | – | – | Change of MIC value in serum [1]: greater than 128 fold
2 | C[C@@H](O)[C@H]1C(=O)N2C(C(=O)O)=C(S[C@@H]3CN[C@H](C(=O)N(C)C)C3)[C@H](C)[C@H]12 [Meropenem] | 1 (≈ 2.61 µM) | 0.25 (≈ 0.652 µM) | 0.25 (≈ 0.652 µM) | 1 (≈ 2.61 µM) | 2 (≈ 5.22 µM) | 8 (≈ 20.9 µM) | 32 | 0.25 (≈ 0.652 µM) | < 0.0625 | 8 (≈ 20.9 µM) | 64 (≈ 167 µM) | < 0.0625 | < 0.0625 | < 0.0625 | > 16 | < 0.125 | < 0.125 | < 0.125 | MIC ([3]; S. aureus ATCC 29213, MHB, 16-18 h, 37 °C, read-out: MIC): < 0.0625 µg/mL; MIC ([9]; E. faecalis A4 (VRE, VanA), MHB, 16-18 h, 37 °C, read-out: MIC): > 64 µg/mL; MIC ([10]; S. enteritidis ATCC 13076, MHB, 16-18 h, 37 °C, read-out: MIC): < 0.0625 µg/mL; MIC ([11]; E. faecium 5F-10, MHB, 16-18 h, 37 °C, read-out: MIC): 8 µg/mL (≈ 20.9 µM); MIC ([12]; E. coli ATCC 25922, MHB, 16-18 h, 37 °C, read-out: MIC): 0.03 µg/mL (≈ 0.0782 µM); MIC [17]: < 0.125 µg/mL; MIC [19]: < 0.125 µg/mL; MIC [21]: < 0.125 µg/mL; MIC ([22]; P. aeruginosa PA14, MHB, 16-18 h, 37 °C, read-out: MIC): 32 µg/mL (≈ 83.4 µM); FIC index ([29]; antibiotic in combination with LI14, checkerboard 8 × 8, 18 h, ≤0.5 = synergy): 2; MICa of antibiotic ([29]; in the absence of LI14): 32 µg/mL; MICb of antibiotic [29, 35]: 32 µg/mL
3 | CN(C)c1cc(NC(=O)CNC(C)(C)C)c(O)c2c1C[C@H]1C[C@H]3[C@H](N(C)C)C(O)=C(C(N)=O)C(=O)[C@@]3(O)C(O)=C1C2=O [Tigecycline] | 0.25 (≈ 0.427 µM) | 0.25 (≈ 0.427 µM) | 1 (≈ 1.71 µM) | 0.25 (≈ 0.427 µM) | < 0.0625 | 16 (≈ 27.3 µM) | 2 | 16 (≈ 27.3 µM) | 32 (≈ 54.6 µM) | 2 (≈ 3.41 µM) | 2 (≈ 3.41 µM) | 0.25 (≈ 0.427 µM) | 0.5 (≈ 0.854 µM) | 0.25 (≈ 0.427 µM) | 64 | 1 (≈ 1.71 µM) | 1 (≈ 1.71 µM) | 64 (≈ 109 µM) | MIC [3]: 0.125 µg/mL (≈ 0.213 µM); MIC ([9]; VRE): < 0.0625 µg/mL; MIC [10]: 0.125 µg/mL (≈ 0.213 µM); MIC [11]: < 0.0625 µg/mL; MIC [12]: 0.125 µg/mL (≈ 0.213 µM); MIC ([17]; E. coli CP131 (mcr-3), MHB, 16-18 h, 37 °C, read-out: MIC): 2 µg/mL (≈ 3.41 µM); MIC ([19]; E. coli G92 (mcr-1), MHB, 16-18 h, 37 °C, read-out: MIC): 4 µg/mL (≈ 6.83 µM); MIC ([21]; A. baumannii C222 (tet(X6)), MHB, 16-18 h, 37 °C, read-out: MIC): 64 µg/mL (≈ 109 µM); MIC ([22]; PA14): < 0.0625 µg/mL; MIC [30]: 1 µg/mL (≈ 1.71 µM); MIC [31]: 1 µg/mL (≈ 1.71 µM); MIC [32]: 1 µg/mL (≈ 1.71 µM); FIC index [33, 36]: 0.5; MICa of antibiotic ([33]; in the absence of LI14): 0.063 µg/mL; MICb of antibiotic [33, 35]: 0.016 µg/mL; Potentiation [33, 35]: 4 fold; FIC index [34, 36]: 0.125; MICa of antibiotic ([34]; in the absence of LI14): 32 µg/mL; MICb of antibiotic [34, 35]: 2 µg/mL; Potentiation [34, 35]: 16 fold
